Test results from article PMC3179684 (Toxicological Sciences, 2011).
Where “and” joins values, the source holds several entries; their conditions need not be identical. Identical values can stand only once. Like-named read-outs stand apart in the source and are kept apart here. Marks after values point to notes of the source that are not given here.

Experiments:
[1] = determined using a synthetic iron porphyrin; ref Collman et al., 1986; cited from earlier work
[2] = in vitro and in vivo in rodents; ref Victorin and Ståhlberg, 1988; Walker et al., 2000; cited from earlier work
[3] = Thermodynamic partition coefficient medium-to-air; type: physicochemical; settings: microsomal incubations, 37°C (ET n = 5, EO n = 3)
CYP [4] = assay: Metabolic ET elimination in mouse liver microsomes; type: in vitro ADME, B6C3F1 mice; settings: 10 mg protein/ml, ET 170 ppm in vessel atmosphere
CYP [5] = assay: EO formation in ET-exposed liver microsomes of CYP2E1 knockout mice; type: in vitro ADME, 129/Sv-Cyp2e1tm1Gonz/J mice (CYP2E1 knockout mice); settings: pooled liver microsomes of 50 CYP2E1 knockout mice
CYP [6] = assay: EO formation in ET-exposed rat lung microsomes; type: in vitro ADME, Fischer 344 rats
CYP [7] = assay: EO formation in ET-exposed mouse lung microsomes; type: in vitro ADME, B6C3F1 mice
CYP2E1 [8] = target: T1, CYP2E1 (Mus musculus, UniProt Q05421); assay: EO formation in ET-exposed liver microsomes of wild-type mice; type: in vitro ADME, 129S1/SvImJ mice (wild-type mice)
[9] = value used in the physiological toxicokinetic model; ref Csanády et al. (2000); cited from earlier work
CYP2E1 [10] = target: CYP2E1 (Homo sapiens, UniProt P05181); assay: EO formation in ET-exposed human liver microsomes; type: in vitro ADME
CYP2E1 [11] = target: CYP2E1 (Rattus norvegicus, UniProt P05182); assay: EO formation in ET-exposed rat liver microsomes; type: in vitro ADME, Fischer 344 rats
[12] = rats; ref Hamm et al., 1984; cited from earlier work
[13] = rat, gas uptake, cited from earlier work
CYP2E1 [14] = target: T1, CYP2E1; assay: EO formation in ET-exposed mouse liver microsomes; type: in vitro ADME, B6C3F1 mice
[15] = mouse, gas uptake; ref Artati et al. (2009); cited from earlier work
hepatic CYP = settings: rats, 600 ppm ET, cited from earlier work
[16] = 37°C, pH 7, estimated; ref Faller et al., 2001; cited from earlier work
epoxide hydrolase (EH) [17] = settings: rat liver microsomes; about the same obtained here; ref Faller et al., 2001; cited from earlier work
epoxide hydrolase (EH) [18] = settings: mouse liver microsomes; about the same obtained here; ref Faller et al., 2001; cited from earlier work
[19] = GSH 15 mmol/l; ref Faller et al. (2001); cited from earlier work

Chain of CYP2E1 (Homo sapiens, UniProt P05181) (P05181 whole entry): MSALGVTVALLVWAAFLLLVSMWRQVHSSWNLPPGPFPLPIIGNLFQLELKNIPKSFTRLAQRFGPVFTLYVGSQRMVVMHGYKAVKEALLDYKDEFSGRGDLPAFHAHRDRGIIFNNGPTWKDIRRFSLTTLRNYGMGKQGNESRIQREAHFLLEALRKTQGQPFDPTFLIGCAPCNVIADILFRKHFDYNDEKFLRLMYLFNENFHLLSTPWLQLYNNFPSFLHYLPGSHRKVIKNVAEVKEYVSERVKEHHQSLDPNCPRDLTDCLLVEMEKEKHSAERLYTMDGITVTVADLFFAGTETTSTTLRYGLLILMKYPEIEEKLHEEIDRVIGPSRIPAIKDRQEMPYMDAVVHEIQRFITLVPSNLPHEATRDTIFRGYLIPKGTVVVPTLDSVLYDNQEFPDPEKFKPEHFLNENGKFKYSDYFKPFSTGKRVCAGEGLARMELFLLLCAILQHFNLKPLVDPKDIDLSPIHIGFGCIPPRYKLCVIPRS
T1 sequence (Q05421 whole entry): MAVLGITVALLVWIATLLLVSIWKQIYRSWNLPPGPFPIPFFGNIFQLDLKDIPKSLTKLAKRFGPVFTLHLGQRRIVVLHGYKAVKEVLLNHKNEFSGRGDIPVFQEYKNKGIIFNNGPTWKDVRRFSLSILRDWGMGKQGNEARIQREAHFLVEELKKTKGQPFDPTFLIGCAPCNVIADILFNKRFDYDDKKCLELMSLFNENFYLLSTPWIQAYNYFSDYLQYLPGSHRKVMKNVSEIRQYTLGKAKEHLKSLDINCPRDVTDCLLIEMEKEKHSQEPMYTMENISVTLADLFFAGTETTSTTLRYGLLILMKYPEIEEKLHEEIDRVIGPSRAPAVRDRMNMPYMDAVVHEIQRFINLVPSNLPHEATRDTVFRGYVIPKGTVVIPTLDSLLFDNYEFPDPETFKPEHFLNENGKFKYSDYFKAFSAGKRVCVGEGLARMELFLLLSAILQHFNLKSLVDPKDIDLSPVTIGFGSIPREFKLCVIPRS
Chain of CYP2E1 (Rattus norvegicus, UniProt P05182) (P05182 whole entry): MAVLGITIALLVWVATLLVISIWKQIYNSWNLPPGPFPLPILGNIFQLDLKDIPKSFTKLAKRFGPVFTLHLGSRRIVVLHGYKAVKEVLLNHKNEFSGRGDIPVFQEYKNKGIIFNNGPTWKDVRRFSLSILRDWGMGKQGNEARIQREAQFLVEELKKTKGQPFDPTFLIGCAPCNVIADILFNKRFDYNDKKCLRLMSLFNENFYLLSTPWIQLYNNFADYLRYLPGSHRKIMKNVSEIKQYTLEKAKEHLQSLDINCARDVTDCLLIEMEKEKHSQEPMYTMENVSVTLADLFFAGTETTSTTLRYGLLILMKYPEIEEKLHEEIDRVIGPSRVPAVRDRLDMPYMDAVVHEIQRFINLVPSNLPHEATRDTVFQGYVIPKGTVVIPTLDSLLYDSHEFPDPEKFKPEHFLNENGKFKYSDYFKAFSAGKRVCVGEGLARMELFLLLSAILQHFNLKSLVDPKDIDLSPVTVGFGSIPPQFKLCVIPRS

SMILES: C=Cc1ccccc1 [Styrene, styrene]
- partition ratio k3/k4 [1]: 10,000

SMILES: C=C [ET, ethylene]
- mutagenicity [2]: negative
- Keq (thermodynamic partition coefficient medium-to-air) [3]: 0.2 ± 0.06 and 0.2
- initial rate of metabolic ET elimination (CYP [4]): 0.069 nmol/min/mg protein
- VmaxEO (maximum rate of EO formation) (CYP [5]): 0.074 nmol/min/mg protein
- k4 (suicide inactivation rate constant) (CYP [6]; lung microsomes pooled from 50 rats, two incubations): 0.573 min⁻¹ and 0.392 min⁻¹
- VmaxEO (maximum EO formation rate) (CYP [6]; pooled rat lung microsomes, mean of 18,600 and 57,800 ppm ET): 0.055 nmol/min/mg protein
- k4 (suicide inactivation rate constant) (CYP [7]; lung microsomes pooled from 150 mice, two incubations): 0.306 min⁻¹ and 0.326 min⁻¹
- VmaxEO (maximum EO formation rate) (CYP [7]; pooled mouse lung microsomes, mean of 16,500 and 75,400 ppm ET): 0.073 nmol/min/mg protein
- VmaxEO in wild-type mice relative to CYP2E1 knockout mice (CYP2E1 [8]; liver microsomes): about 15 times higher
- ratio of VmaxEO/Km in wild-type mice to VmaxEO/Km in CYP2E1 knockout mice (CYP2E1 [8]; liver microsomes): 340
- VmaxEO (maximum rate of EO formation) (CYP2E1 [8]; pooled liver microsomes of 50 wild-type mice): 1.1 nmol/min/mg protein
- apparent Michaelis constant of the ET oxidation in the liver compartment [9]: 0.0005 mmol/L
- k3/k4 (partition ratio) (CYP2E1 [10]; human liver microsomes, mean ± SE): 39 ± 6
- k4 (suicide inactivation rate constant) (CYP2E1 [10]; human liver microsomes, nine ET incubations, mean ± SE): 0.098 ± 0.013 min⁻¹
- Km, predicted from in vitro (CYP2E1 [10]; human, Km in suspension divided by Kst 0.33): 963 ppm in air
- time in which hepatic CYP2E1 decreases to about one third of the initial status (CYP2E1 [10]; humans, very high ET concentrations, expected from k4): 11 min
- VmaxEO (maximum EO formation rate) (CYP2E1 [10]; liver microsomes from one individual, mean ± SE): 0.253 ± 0.0002 nmol/min/mg protein
- VmaxEO (maximum EO formation rate) (CYP2E1 [10]; liver microsomes pooled from 25 humans, 37°C, mean ± SE): 0.219 nmol/min/mg protein and 0.219 ± 0.005 nmol/min/mg protein
- k3 (catalytic rate constant of EO formation) (CYP2E1 [10]; pooled human liver microsomes, VmaxEO divided by CYP2E1 content, mean ± SE): 3.2 ± 0.2 min⁻¹
- VmaxEO (maximum EO formation rate) (CYP2E1 [11]; liver microsomes pooled from 10 rats, 37°C, mean ± SE): 0.401 nmol/min/mg protein and 0.401 ± 0.013 nmol/min/mg protein
- k4 (suicide inactivation rate constant) (CYP2E1 [11]; pooled rat liver microsomes, eight ET incubations, mean ± SE): 0.070 ± 0.006 min⁻¹
- k3/k4 (partition ratio) (CYP2E1 [11]; pooled rat liver microsomes, mean ± SE): 169 ± 15
- k3 (catalytic rate constant of EO formation) (CYP2E1 [11]; pooled rat liver microsomes, VmaxEO divided by CYP2E1 content, mean ± SE): 11.2 ± 1.5 min⁻¹
- Km, predicted from in vitro (CYP2E1 [11]; rat, Km in suspension divided by Kst 0.50): 1516 ppm in air
- long-term carcinogenicity study [12]: negative
- Km, determined in vivo ([13]; ref Andersen et al. (1980)): 218 ^f ppm in air
- VmaxET, determined in vivo ([13]; ref Andersen et al. (1980)): 8.6 ^f μmol/h/kg
- Km, determined in vivo ([13]; ref Bolt et al. (1984)): 204 ^e ppm in air
- VmaxET, determined in vivo ([13]; ref Bolt et al. (1984)): 8.5 ^e μmol/h/kg
- VmaxEO (maximum EO formation rate) (CYP2E1 [14]; liver microsomes pooled from 50 mice, 37°C, mean ± SE): 0.567 nmol/min/mg protein and 0.567 ± 0.038 nmol/min/mg protein
- time in which hepatic CYP2E1 decreases to about one third of the initial status (CYP2E1 [14]; mice, very high ET concentrations, expected from k4): 18 min
- Km, predicted from in vitro (CYP2E1 [14]; mouse, Km in suspension divided by Kst 0.55): 400 ppm in air
- k3/k4 (partition ratio) (CYP2E1 [14]; pooled mouse liver microsomes, mean ± SE): 100 ± 9
- k4 (suicide inactivation rate constant) (CYP2E1 [14]; pooled mouse liver microsomes, six ET incubations, mean ± SE): 0.060 ± 0.005 min⁻¹
- k3 (catalytic rate constant of EO formation) (CYP2E1 [14]; pooled mouse liver microsomes, VmaxEO divided by CYP2E1 content, mean ± SE): 5.9 ± 0.6 min⁻¹
- Km, determined in vivo [15]: 105 ^d ppm in air
- VmaxET, determined in vivo [15]: 15 ^d μmol/h/kg
- hepatic 4-nitrophenol hydroxylase activity (predominantly CYP2E1) remaining (hepatic CYP; after 4 h, ref Fennell et al., 2004): 50%
- hepatic CYP remaining after inactivation (hepatic CYP; after 360 min of exposure, ref Maples and Dahl, 1993): 68%

SMILES: CC1CO1 (centres unmarked) [PO, propylene oxide]
- half-life of the noncatalyzed aqueous hydrolysis [16]: 88 h
- hepatic microsomal elimination clearance (epoxide hydrolase (EH) [17]): 9.9 μl/min/mg protein
- hepatic microsomal elimination clearance (epoxide hydrolase (EH) [18]): 4.4 μl/min/mg protein
- half-life of nonenzymatic GSH conjugation [19]: 1.7 h
